# Measured values as given in article PMC5142287, “Weight control interventions improve therapeutic efficacy of dacarbazine in melanoma by reversing obesity-induced drug resistance” (Cancer & Metabolism, 2016).
# Experiments:
# B16F1 cells = test: Long-term survival assay, B16F1 cells in CM from 3T3-L1 cells; assay type: cell-based, Murine
# Source text: Additional file 1: Table S1. Composition of diets used in the study. Normal diet (ND) was procured from Amrut Laboratory Animal Feed, Pune, India, and high fat diet (HFD) was purchased from Provimi Animal Nutrition Pvt. Ltd., Bangalore, India. *, HFD was also supplemented with 400 g groundnut and 200 g dried coconut per kg body weight of mice. […] Obesity-associated parameters in the experimental ND mice recorded at the end of the experiment. ND male C57BL/6J mice were divided into two major groups. One group was orally treated with orlistat every alternate day before inoculating with B16F10 cells. The second group was orally given vehicle control on every alternate day for 8 weeks. Mice from both the groups (N = 11 per each group) were injected (s.c.) with B16F10 cells (2 × 10^5 cells/mouse in 100 μl PBS). Their body weight was monitored weekly throughout the study, and serum was collected at the end of the experiment. Blood glucose, serum TG, serum cholesterol, serum-free fatty acids, and serum LDLc were measured. Serum factors including leptin, adiponectin, insulin, resistin, IL-6, and TNF-α were estimated by ELISA. […] Effect of obesity-associated serum factors on the protein level of P-gp, Cav-1, and FASN in B16F1 cells. […] Thereafter, these cells were subjected to immunofluorescence confocal staining of the indicated molecules. The data were recorded using Zeiss LSM510 META Confocal Microscope. (Scale bar = 20 μm). […] Data were acquired on FACS Calibur and analyzed using BD CellQuest Pro software. The data are representative of experiments performed three times. (PDF 120 kb) Additional file 5: Figure S3. Effect of inhibition of FASN, Cav-1, and P-gp on response of B16F1 cells to DTIC. […] Thereafter, these cells were subjected to long-term survival assay. […] The medium was changed every 2–3 days.
# [1] = Obesity-associated factors in B16F10-isografted ND C57BL/6J mice; assay type: in vivo; settings: end of experiment
# Source text: (§1) Blood glucose levels and serum lipids were estimated as described previously. Insulin, leptin, and adiponectin levels in the serum were estimated by mouse-specific respective ELISA kits as described. Resistin, IL-6, and TNF-α levels in the serum were detected by indirect ELISA as described previously.
# [2] = LC-MS/MS quantitation of DTIC in tumor, plasma, liver and adipose tissue
# Protocol: The samples were introduced to the mass spectrometer through a reversed-phase column (Agilent ZORBAX SB-C18, 2.1 × 30 mm, 3.5 μm). The mobile phase containing water and acetonitrile with 0.1% formic acid was infused at a flow rate of 0.4 ml min^−1. The MS scan range was set between 100 and 1000 m/z, with the dry gas flow and dry gas temperature maintained at 6 L min^−1 and 320 °C, respectively. […] All the mass spectrometric data were acquired in positive ionization mode using Agilent MassHunter data acquisition software, version B.05.01. MassHunter Quantitative analysis software, version B.07.00 was used for the generation of calibration curves and subsequent quantitation of DTIC in the samples. Calibration curves were created using linear fitting, 1/x weighting and including the origin. Calibration standards (0.5–800 ng) were prepared using standard DTIC. All the samples including the standard DTIC preparations were spiked with leucine enkephalin (10 ng) as internal standard. […] The quantitation capability of this method is evaluated by using samples with known concentrations.
# metastatic melanoma = tested on: metastatic melanoma; set-up: method as in PMID 10840932; settings: cited from earlier work
# B16F10 cells [3] = test: MTT assay, B16F10 cells grown in conditioned medium from 3T3-L1 cells; settings: for IC50: Mus musculus, 10 days, DTIC 48 h, MTT
# B16F10 cells [4] = test: MTT assay, B16F10 cells grown in medium with 5% serum of ND or HFD mice; settings: for IC50: Mus musculus, cells grown 10 days, DTIC 48 h, MTT
# [5] = Obesity-associated factors in B16F10-isografted HFD C57BL/6J mice (body weight, blood glucose, serum lipids, ELISA); assay type: in vivo; settings: end of experiment, mean ± SD
# Source text: C57BL/6J mice were procured from Experimental Animal Facility (EAF) at National Centre for Cell Science (NCCS), Pune, India. High fat diet (24% fat) was purchased from Provimi Animal Nutrition Pvt. Ltd., Bangalore, India, and normal diet (5% fat) was obtained from Amrut Laboratory, Pune, India. The compositions of diets are provided in supplementary data (Additional file 1: Table S1). Diet-induced obesity was developed in the mice by feeding them with high fat diet as described previously. Male C57BL/6J mice (6–8 weeks old) were divided into normal diet (ND) and high fat diet (HFD) group. ND group was fed with normal diet while HFD group was fed with high fat diet supplemented with ground nut and dried coconut for 6 months. Body weight and serum chemistry profile were measured monthly to verify obesity-associated changes. Water and food were provided ad libitum to all the mice. All animal experiments were carried out as per the requirement and guidelines of the Committee for the Purpose of Control and Supervision of Experiments on Animals (CPCSEA), Government of India, and after obtaining permission of the Institutional Animal Ethics Committee (IAEC).
# as §1
# To study the impact of diet-induced obesity on the outcome of DTIC therapy in melanoma, we treated B16F10 melanoma isografted obese mice with DTIC purchased from Sigma, USA (80 mg/kg intraperitoneally for five consecutive days as described previously). In addition, to look into the impact of weight loss interventions on the outcome of DTIC therapy in obese mice, mice were administered with orlistat (an antiobesity drug known to inhibit gastrointestinal lipases) and/or shifted from high fat to normal diet followed by DTIC treatment. The detailed experimental plan is illustrated in Fig. 1a. Briefly, obese mice were administered orally with orlistat (10 mg/kg on every alternate day) purchased from Enzo Life Sciences, NY, USA, and/or shifted from high fat diet to normal diet. HFD C57BL/6J mice treated with vehicle or orlistat were termed as HFD-HFD Ctrl and HFD-HFD Orli (N = 11 per each group), respectively, whereas HFD C57BL/6J mice shifted to normal diet and treated with vehicle or orlistat were grouped as HFD-ND Ctrl and HFD-ND Orli (N = 11 per each group), respectively. After 15 days, these mice were injected subcutaneously (s.c.) with B16F10 cells (2 × 10^5) in 100 μl of PBS and monitored daily for the presence of palpable tumors and dimensions were recorded on alternate days. […] Tumor volume was calculated using the formula 0.52 × length × width^2 and was followed up throughout the study.
smiles,measurement,setting,value
"CN(C)/N=N/c1[nH]cnc1C(N)=O [DTIC, Dacarbazine]",Effect on survival,B16F1 cells; CM from differentiated ID adipocytes,did not remarkably affect
same,Improvement of sensitivity to DTIC,"B16F1 cells; CM from differentiated adipocytes, simultaneous treatment with all three inhibitors",approximately 80%
same,Survival remaining,"B16F1 cells; CM from orlistat-treated differentiating adipocytes, DTIC at 649 μM",approximately 30%
same,Blood glucose,[1]; mean,161.17 mg/dL
same,Serum IL-6,[1]; mean,20.19 pg/mL
same,Serum LDLc,[1]; mean,53.12 mg/dL
same,Serum TG,[1]; mean,55.40 mg/dL
same,Serum TNF-D,[1]; mean,12.35 pg/mL
same,Serum adiponectin,[1]; mean,13873 ng/mL
same,Serum cholesterol,[1]; mean,82.82 mg/dL
same,Serum free fatty acids,[1]; mean,0.90 mM/L
same,Serum insulin,[1]; mean,0.114 µg/L
same,Serum leptin,[1]; mean,15.74 ng/mL
same,Serum resistin,[1]; mean,0.99 ng/mL
same,Body weight,[1]; mean (SD on next line),21.1 g
same,"DTIC level in the plasma, liver, and adipose tissue",[2]; HFD mice compared to ND mice,higher
same,"Level of DTIC in tumors from HFD mice, fold less than in ND counterparts","[2]; tumor, mass spectrometry",~ 6 fold
same,Overall response rate,metastatic melanoma,20–25%
same,"Increase of concentration for 50% cell killing, CM of differentiated adipocytes vs preadipocytes",B16F10 cells [3]; B16F10 cells,~ 5 fold
same,IC50,"B16F10 cells [3]; B16-F10, CM from differentiated adipocytes (ID)",3250 µM
same,IC50,"B16F10 cells [3]; B16-F10, CM from undifferentiated preadipocytes (PA)",649 µM
same,Increase of IC50 in HFD serum vs ND serum,B16F10 cells [4]; B16F10 cells,~ 5 fold
same,IC50,"B16F10 cells [4]; B16-F10, HFD serum (5%)",6690 µM
same,IC50,"B16F10 cells [4]; B16-F10, ND serum (5%)",1420 µM
same,Body weight,"[5]; HFD-HFD (continued on HFD), orlistat 10 mg/kg oral alternate days, DTIC 80 mg/kg i.p. 5 days",32.28 ± 1.70 (p = 0.999) g
same,Blood glucose,[5]; HFD-HFD,194.50 ± 6.98 (p = 0.9997) mg/dl
same,Serum IL-6,[5]; HFD-HFD,44.99 ± 1.58 (p = 0.9999) pg/ml
same,Serum LDLc,[5]; HFD-HFD,85.01 ± 1.17 (p = 0.9999) mg/dl
same,Serum TG,[5]; HFD-HFD,84.17 ± 1.15 (p = 0.9999) mg/dl
same,Serum TNF-α,[5]; HFD-HFD,28.67 ± 0.99 (p = 0.9708) pg/ml
same,Serum adiponectin,[5]; HFD-HFD,3421 ± 198 (p = 0.9999) ng/ml
same,Serum cholesterol,[5]; HFD-HFD,120.54 ± 4.49 (p = 0.9995) mg/dl
same,Serum free fatty acids,[5]; HFD-HFD,2.20 ± 0.04 (p = 0.9993) mM/l
same,Serum insulin,[5]; HFD-HFD,0.385 ± 0.016 (p = 0.8701) μg/l
same,Serum leptin,[5]; HFD-HFD,43.11 ± 1.65 (p = 0.9999) ng/ml
same,Serum resistin,[5]; HFD-HFD,2.23 ± 0.11 (p = 0.9999) ng/ml
same,Blood glucose,[5]; HFD-ND,177.5 ± 5.05 (p = 0.0001) mg/dl
same,Serum IL-6,[5]; HFD-ND,35.59 ± 2.38 (p < 0.0001) pg/ml
same,Serum TG,[5]; HFD-ND,69.15 ± 2.41 (p < 0.0001) mg/dl
same,Serum TNF-α,[5]; HFD-ND,16.17 ± 1.91 (p < 0.0001) pg/ml
same,Serum adiponectin,[5]; HFD-ND,5133 ± 228 (p < 0.0001) ng/ml
same,Serum free fatty acids,[5]; HFD-ND,1.81 ± 0.05 (p < 0.0001) mM/l
same,Serum insulin,[5]; HFD-ND,0.301 ± 0.02 (p < 0.0001) μg/l
same,Serum leptin,[5]; HFD-ND,34.54 ± 2.3 (p < 0.0001) ng/ml
same,Serum resistin,[5]; HFD-ND,1.82 ± 0.10 (p < 0.0001) ng/ml
